Like-named read-outs stand apart in the source and are kept apart here.
Tests used:
TNFα = assay: IRAK4 Monocyte TNFα Cell Based Assay; set-up: species or system human; details: Homo sapiens, Monocyte, read-out: EC50MONO TNF HTRF
IRAK4 enzyme = IRAK4 enzyme (Homo sapiens (Human), UniProt Q9NWZ3); assay: IRAK4 Biochemical Assay (TR-FRET, STK1 KinEASE)
[1] = human monocytes, second part of Table 2 (compounds 33-343), unit inferred

Chain of IRAK4 enzyme (Q9NWZ3 whole entry): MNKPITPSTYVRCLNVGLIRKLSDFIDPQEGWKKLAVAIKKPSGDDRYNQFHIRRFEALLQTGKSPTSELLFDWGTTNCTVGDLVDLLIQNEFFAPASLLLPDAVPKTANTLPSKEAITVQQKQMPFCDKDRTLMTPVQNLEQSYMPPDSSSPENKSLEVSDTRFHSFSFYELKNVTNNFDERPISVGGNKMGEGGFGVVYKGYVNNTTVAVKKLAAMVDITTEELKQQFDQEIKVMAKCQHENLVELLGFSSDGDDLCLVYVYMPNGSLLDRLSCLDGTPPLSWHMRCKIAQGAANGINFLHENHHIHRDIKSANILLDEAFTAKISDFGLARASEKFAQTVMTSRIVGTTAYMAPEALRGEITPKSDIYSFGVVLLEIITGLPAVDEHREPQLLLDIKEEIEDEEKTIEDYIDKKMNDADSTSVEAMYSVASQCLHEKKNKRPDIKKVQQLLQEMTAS

SMILES: CC(C)Nc1cc(-c2ccc3cc(C#N)cnn23)ncc1-c1nnc(C(=O)N2CC[C@@H](CO)C2)s1 [Example 216, (R)-7-(5-(5-(3-(hydroxymethyl)pyrrolidine-1-carbonyl)-1,3,4-thiadiazol-2-yl)-4-(isopropylamino)pyridin-2-yl)pyrrolo[1,2-b]pyridazine-3-carbonitrile]
- EC50 (TNFα; [1]): 18.1 nM
- IC50 (IRAK4 enzyme): 0.78 nM

SMILES: COC(=O)N[C@H]1CCN(C(=O)c2nnc(-c3cnc(-c4ccc5cc(C#N)cnn45)cc3NC(C)C)s2)C1 [Example 43, methyl (S)-(1-(5-(6-(3-cyanopyrrolo[1,2-b]pyridazin-7-yl)-4-(isopropylamino)pyridin-3-yl)-1,3,4-thiadiazole-2-carbonyl)pyrrolidin-3-yl)carbamate]
- EC50 (TNFα; [1]): 21.9 nM
- IC50 (IRAK4 enzyme): 0.72 nM

SMILES: CC(C)Nc1cc(-c2ccc3cc(C#N)cnn23)ncc1-c1nnc(N2CCC(O)(CF)CC2)s1 [Example 189, 7-(5-(5-(4-(fluoromethyl)-4-hydroxypiperidin-1-yl)-1,3,4-thiadiazol-2-yl)-4-(isopropylamino)pyridin-2-yl)pyrrolo[1,2-b]pyridazine-3-carbonitrile]
- EC50 (TNFα; [1]): 16.3 nM
- IC50 (IRAK4 enzyme): 1.02 nM

SMILES: CC(C)Nc1cc(-c2ccc3cc(C#N)cnn23)ncc1-c1nnc(N2CC3(CCNC3=O)C2)s1 [Example 164, 7-(4-(isopropylamino)-5-(5-(5-oxo-2,6-diazaspiro[3.4]octan-2-yl)-1,3,4-thiadiazol-2-yl)pyridin-2-yl)pyrrolo[1,2-b]pyridazine-3-carbonitrile]
- EC50 (TNFα; [1]): 17.5 nM
- IC50 (IRAK4 enzyme): 0.55 nM

SMILES: CC(=O)NC1CN(c2nnc(-c3cnc(-c4ccc5cc(C#N)cnn45)cc3NC(C)C)s2)CC1(F)F (centres unmarked) [Compound 327, N-(1-(5-(6-(3-cyanopyrrolo[1,2-b]pyridazin-7-yl)-4-(isopropylamino)pyridin-3-yl)-1,3,4-thiadiazol-2-yl)-4,4-difluoropyrrolidin-3-yl)acetamide]
- EC50 (TNFα; [1]): 10.2 nM
- IC50 (IRAK4 enzyme): 0.37 nM

SMILES: CC(=O)N1CCC2(CC1)CN(c1nnc(-c3cnc(-c4ccc5cc(C#N)cnn45)cc3NC(C)C)s1)C2 [Example 67, 7-(5-(5-(7-acetyl-2,7-diazaspiro[3.5]nonan-2-yl)-1,3,4-thiadiazol-2-yl)-4-(isopropylamino)pyridin-2-yl)pyrrolo[1,2-b]pyridazine-3-carbonitrile]
- EC50 (TNFα; [1]): 10.4 nM
- IC50 (IRAK4 enzyme): 0.59 nM

SMILES: CC(=O)NC1CCC2(CC1)CN(c1nnc(-c3cnc(-c4ccc5cc(C#N)cnn45)cc3N[C@H](C)C#N)s1)C2 [Example 77, (R)-N-(2-(5-(4-((1-cyanoethyl)amino)-6-(3-cyanopyrrolo[1,2-b]pyridazin-7-yl)pyridin-3-yl)-1,3,4-thiadiazol-2-yl)-2-azaspiro[3.5]nonan-7-yl)acetamide]
- EC50 (TNFα; [1]): 3.9 nM
- IC50 (IRAK4 enzyme): 1.06 nM

SMILES: CC(C)Nc1cc(-c2ccc3cc(C#N)cnn23)ncc1-c1nnc(N2CCC(C)(O)CC2)s1 [Example 287, 7-(5-(5-(4-hydroxy-4-methylpiperidin-1-yl)-1,3,4-thiadiazol-2-yl)-4-(isopropylamino)pyridin-2-yl)pyrrolo[1,2-b]pyridazine-3-carbonitrile]
- EC50 (TNFα; [1]): 9.8 nM
- IC50 (IRAK4 enzyme): 0.86 nM

SMILES: CC(=O)N1C[C@H]2COC[C@@H](C1)N2c1nnc(-c2cnc(-c3ccc4cc(C#N)cnn34)cc2NC(C)C)s1 [Compound 266, 7-(5-(5-((1R,5S)-7-acetyl-3-oxa-7,9-diazabicyclo[3.3.1]nonan-9-yl)-1,3,4-thiadiazol-2-yl)-4-(isopropylamino)pyridin-2-yl)pyrrolo[1,2-b]pyridazine-3-carbonitrile]
- EC50 (TNFα): 3.2 nM
- IC50 (IRAK4 enzyme; second part of Table 2 (compounds 33-343), unit inferred, read-out: IC50 IRAK4-HTBS): 0.49 nM

SMILES: CC(=O)N1CCN(c2nnc(-c3cnc(-c4ccc5cc(C#N)cnn45)cc3NC(C)C)s2)CC1 [Compound 232, 7-(5-(5-(4-acetylpiperazin-1-yl)-1,3,4-thiadiazol-2-yl)-4-(isopropylamino)pyridin-2-yl)pyrrolo[1,2-b]pyridazine-3-carbonitrile]
- EC50 (TNFα; [1]): 7.4 nM
- IC50 (IRAK4 enzyme): 0.62 nM

SMILES: CC(C)Nc1cc(-c2ccc3cc(C#N)cnn23)ncc1-c1nnc(N2CCC[C@H]2CO)s1 [Compound 329, (S)-7-(5-(5-(2-(hydroxymethyl)pyrrolidin-1-yl)-1,3,4-thiadiazol-2-yl)-4-(isopropylamino)pyridin-2-yl)pyrrolo[1,2-b]pyridazine-3-carbonitrile]
- EC50 (TNFα; [1]): 54.2 nM
- IC50 (IRAK4 enzyme): 0.84 nM

SMILES: CC(C)Nc1cc(-c2ccc3cc(C#N)cnn23)ncc1-c1nnc(C(=O)N2CC[C@@H](NC(=O)C3CC3)C2)s1 [Example 47, (R)-N-(1-(5-(6-(3-cyanopyrrolo[1,2-b]pyridazin-7-yl)-4-(isopropylamino)pyridin-3-yl)-1,3,4-thiadiazole-2-carbonyl)pyrrolidin-3-yl)cyclopropanecarboxamide]
- EC50 (TNFα; [1]): 5680 nM
- IC50 (IRAK4 enzyme): 1.42 nM

SMILES: CC(=O)N1C2CC1CN(c1nnc(-c3cnc(-c4ccc5cc(C#N)cnn45)cc3NC(C)C)s1)C2 [Compound 258, 7-(5-(5-(6-acetyl-3,6-diazabicyclo[3.1.1]heptan-3-yl)-1,3,4-thiadiazol-2-yl)-4-(isopropylamino)pyridin-2-yl)pyrrolo[1,2-b]pyridazine-3-carbonitrile]
- EC50 (TNFα): 5.8 nM
- IC50 (IRAK4 enzyme): 1.26 nM

— patent US11702414B2, “Thiadiazole IRAK4 inhibitors” (Gilead Sciences, Inc., priority 2018, dated 2023)
